In ChEMBL document CHEMBL1131363, “Isoindolinone enantiomers having affinity for the dopamine D4 receptor” (Bioorg Med Chem Lett, 1998):
pKi: −log10 of the molar value.

Key:
D(3) dopamine receptor = D(3) dopamine receptor (Homo sapiens, UniProt P35462); assay: Displacement of [3H]spiperone from human Dopamine receptor D3 expressed in CHO cells; format: cell-based
[1] = biological target: T1, 5-hydroxytryptamine receptor 1A (Mus musculus, UniProt Q64264); assay: In vivo binding affinity was evaluated against 5-hydroxytryptamine 1A receptor; format: organism-based
T1 sequence (Q64264 whole entry): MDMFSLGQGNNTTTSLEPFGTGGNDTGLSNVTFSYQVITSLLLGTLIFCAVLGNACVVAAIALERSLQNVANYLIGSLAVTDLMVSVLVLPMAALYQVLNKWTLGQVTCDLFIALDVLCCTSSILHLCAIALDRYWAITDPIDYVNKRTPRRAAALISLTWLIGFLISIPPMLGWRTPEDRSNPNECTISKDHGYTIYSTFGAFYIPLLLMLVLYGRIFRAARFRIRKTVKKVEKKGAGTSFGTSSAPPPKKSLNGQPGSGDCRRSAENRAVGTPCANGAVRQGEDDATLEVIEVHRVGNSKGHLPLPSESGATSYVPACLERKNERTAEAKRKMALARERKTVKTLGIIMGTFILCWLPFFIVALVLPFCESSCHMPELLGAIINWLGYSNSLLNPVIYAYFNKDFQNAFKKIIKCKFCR

[2] = biological target: 5-hydroxytryptamine receptor 2A (Bos taurus, UniProt Q75Z89); assay: In vivo binding affinity was evaluated against 5-hydroxytryptamine 2 receptor; format: organism-based
Sequence of 5-hydroxytryptamine receptor 2A (Q75Z89 whole entry): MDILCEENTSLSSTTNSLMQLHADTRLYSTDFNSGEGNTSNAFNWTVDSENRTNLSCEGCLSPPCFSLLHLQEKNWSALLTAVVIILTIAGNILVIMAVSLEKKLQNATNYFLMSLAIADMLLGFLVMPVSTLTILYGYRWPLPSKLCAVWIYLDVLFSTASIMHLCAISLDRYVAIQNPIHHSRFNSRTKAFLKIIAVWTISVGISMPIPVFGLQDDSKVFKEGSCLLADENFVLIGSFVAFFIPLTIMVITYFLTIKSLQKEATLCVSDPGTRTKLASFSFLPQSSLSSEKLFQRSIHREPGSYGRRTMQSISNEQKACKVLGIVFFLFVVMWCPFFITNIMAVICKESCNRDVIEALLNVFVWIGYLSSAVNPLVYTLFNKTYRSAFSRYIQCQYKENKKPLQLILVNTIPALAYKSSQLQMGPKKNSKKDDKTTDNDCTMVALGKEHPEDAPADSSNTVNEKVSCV

Rattus norvegicus = assay: Reversal of amphetamine (at 0.5 mg/kg given intra peritoneal) stimulated locomotor activity at 3 mg/kg in rat.; format: functional
D(4) dopamine receptor = biological target: T2, D(4) dopamine receptor (Homo sapiens, UniProt P21917); assay: In vitro binding affinity at human dopamine D4 receptor expressed in CHO cells by [3H]spiperone displacement.; format: cell-based
T2 sequence (P21917 whole entry): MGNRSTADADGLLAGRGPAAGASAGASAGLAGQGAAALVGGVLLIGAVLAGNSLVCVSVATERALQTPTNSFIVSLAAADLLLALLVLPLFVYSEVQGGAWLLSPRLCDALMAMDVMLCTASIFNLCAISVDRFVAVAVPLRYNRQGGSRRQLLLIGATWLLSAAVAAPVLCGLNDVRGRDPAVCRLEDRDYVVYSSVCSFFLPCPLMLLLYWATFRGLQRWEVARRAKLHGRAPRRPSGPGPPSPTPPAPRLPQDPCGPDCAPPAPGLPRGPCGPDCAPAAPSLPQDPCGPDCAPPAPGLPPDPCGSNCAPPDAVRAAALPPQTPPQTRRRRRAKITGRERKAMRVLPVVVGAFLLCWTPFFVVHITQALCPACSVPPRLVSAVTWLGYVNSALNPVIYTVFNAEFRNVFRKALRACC

D(2) dopamine receptor = D(2) dopamine receptor (Homo sapiens, UniProt P14416); assay: Displacement of [3H]spiperone from human Dopamine receptor D2 expressed in CHO cells; format: cell-based
Sequence of D(2) dopamine receptor (P14416 whole entry): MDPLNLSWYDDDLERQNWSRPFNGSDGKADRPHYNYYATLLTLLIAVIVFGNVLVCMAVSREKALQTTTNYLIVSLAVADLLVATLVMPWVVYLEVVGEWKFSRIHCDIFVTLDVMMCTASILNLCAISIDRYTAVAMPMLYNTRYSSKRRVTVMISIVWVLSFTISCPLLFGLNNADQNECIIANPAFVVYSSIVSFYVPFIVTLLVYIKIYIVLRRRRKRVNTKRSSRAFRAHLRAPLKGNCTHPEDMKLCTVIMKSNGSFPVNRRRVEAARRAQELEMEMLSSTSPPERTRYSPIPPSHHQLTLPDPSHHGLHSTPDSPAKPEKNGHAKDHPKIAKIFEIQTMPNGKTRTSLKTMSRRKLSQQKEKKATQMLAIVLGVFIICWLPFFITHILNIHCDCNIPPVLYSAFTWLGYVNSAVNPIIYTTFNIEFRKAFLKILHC

Sequence of D(3) dopamine receptor (P35462 whole entry): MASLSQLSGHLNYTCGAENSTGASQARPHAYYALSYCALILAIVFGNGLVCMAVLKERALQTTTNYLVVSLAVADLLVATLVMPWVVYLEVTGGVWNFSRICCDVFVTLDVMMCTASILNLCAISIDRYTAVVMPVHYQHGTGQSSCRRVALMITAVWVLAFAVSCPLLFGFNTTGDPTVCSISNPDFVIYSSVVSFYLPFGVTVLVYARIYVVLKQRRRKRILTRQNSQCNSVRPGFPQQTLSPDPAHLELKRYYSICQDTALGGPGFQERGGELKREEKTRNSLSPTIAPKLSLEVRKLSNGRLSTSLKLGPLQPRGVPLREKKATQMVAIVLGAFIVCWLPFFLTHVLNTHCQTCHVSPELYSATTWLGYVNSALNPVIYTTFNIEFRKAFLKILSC

Row | Structure (SMILES) | pKi (D(3) dopamine receptor) | pKi (D(4) dopamine receptor) | pKi (D(2) dopamine receptor) | other results
1 | Cc1ccc(N2CCN(CC[C@@H]3NC(=O)c4ccccc43)CC2)cc1C |  |  |  | pKi [1]: 6.00; pKi [2]: 7.84; Activity (Rattus norvegicus): 70%
2 | Cc1ccnc(N2CCN(CCC3NC(=O)c4ccccc43)CC2)c1 (configuration not stated) | < 5.52 | 7.65 | < 5.30 | 
3 | OCc1ccc(N2CCN(CC[C@H](O)c3ccc(Cl)cc3)CC2)cc1Cl |  | 8.07 |  | 
4 | Cc1ccc(C2CCN(CCC3NC(=O)c4ccccc43)CC2)cc1C (configuration not stated) | < 5.52 |  |  | 
5 | Cc1ccc(N2CCN(CCC3c4ccccc4C(=O)N3C)CC2)cc1C (configuration not stated) | < 5.52 | 7.45 | < 5.30 | 
6 | O=C1NC(CCN2CCN(c3ccc4ccccc4c3)CC2)c2ccccc21 (configuration not stated) | < 5.52 | 8.00 | < 5.30 | 
7 | O=C1NC(CCN2CCN(c3ccc(Cl)cc3)CC2)c2ccccc21 (configuration not stated) | < 5.52 |  | < 5.30 | 
8 | Cc1ccc(N2CCN(CC[C@H]3NC(=O)c4ccccc43)CC2)cc1C |  |  |  | pKi [1]: 6.28; pKi [2]: 7.44; Activity (Rattus norvegicus): 8%
9 | OCc1ccc(N2CCN(CCC(O)c3ccc(Cl)cc3)CC2)cc1Cl (configuration not stated) |  | 7.96 |  | 
10 | CN1C(=O)c2ccccc2C1CCN1CCN(c2ccc(Cl)cc2)CC1 (configuration not stated) | < 5.52 | 7.10 | < 5.30 | 
11 | COc1ccc(N2CCN(CCC3NC(=O)c4ccccc43)CC2)cc1 (configuration not stated) | < 5.52 | 7.43 | < 5.30 | 
12 | O=C(CCN1CCN(c2ccc(CO)c(Cl)c2)CC1)c1ccc(Cl)cc1 |  | 7.22 |  | 

Continued, in another order:

Row | pKi (D(3) dopamine receptor) | pKi (D(4) dopamine receptor) | pKi (D(2) dopamine receptor) | Structure (SMILES) | other results
13 | 5.57 |  |  | O=C1NC(CCN2CCN(c3ccccc3)CC2)c2ccccc21 (configuration not stated) | 
14 | 5.57 |  |  | Cc1ccc(N2CCN(CCC3NC(=O)c4ccccc43)CC2)cc1C (configuration not stated) | 
15 | < 5.52 |  | < 5.30 | Cc1ccc(N2CCN(CCC3NC(=O)c4ccccc43)CC2)cc1 (configuration not stated) | 
16 |  | 7.09 |  | OCc1ccc(N2CCN(CC[C@@H](O)c3ccc(Cl)cc3)CC2)cc1Cl | 
17 | < 5.52 |  | < 5.30 | Cc1nc(N2CCN(CCC3NC(=O)c4ccccc43)CC2)sc1C (configuration not stated) | 
18 | < 5.52 | 6.48 | < 5.30 | COc1ccc(N2CCN(CCC3c4ccccc4C(=O)N3C)CC2)cc1 (configuration not stated) | 
